Data set [1] in a line: Stability study of Atazanavir and Ritonavir tablet. Type of data set: physicochemical. From the text:
Stability study data of Atazanavir and Ritonavir tablet: [table]

For data set [2] the following is noted: manufactured in solid dosage form such as tablet; U.S. Pat. No. 6,458,818; cited from earlier work.

Take `COC(=O)N[C@H](C(=O)N[C@@H](Cc1ccccc1)[C@@H](O)CN(Cc1ccc(-c2ccccn2)cc1)NC(=O)[C@@H](NC(=O)OC)C(C)(C)C)C(C)(C)C` [Atazanavir]: the “Assay (%) (Limit 90-110% of Labelled amount)” value in data set [1] (25° C./60% RH, 2 M) amounted to 99.0%; in data set [1] (40° C./75% RH, 2 M) it was 98%; in data set [1] (Initial), 100.3%.

As to `CC(C)c1nc(CN(C)C(=O)N[C@H](C(=O)N[C@@H](Cc2ccccc2)C[C@H](O)[C@H](Cc2ccccc2)NC(=O)OCc2cncs2)C(C)C)cs1` [Ritonavir], the “Assay (%) (Limit 90-110% of Labelled amount)” value in data set [1] (25° C./60% RH, 2 M) came out at 99.3%; in data set [1] (40° C./75% RH, 2 M), 96%; in data set [1] (Initial) it was 99.5%. Moreover, the oral bioavailability entry in data set [2] is recorded as “poor”.

Source of the values: patent US20100285115A1, “Novel Antiretroviral Combination” (CIPLA LIMITED, priority 2007, published 2010).
